Test results reported in ChEMBL document CHEMBL1201862, “PubChem BioAssay data set” (2004).
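Tested at 5 concentrations; 48 h exposure; 96-well plates; endpoints linearly interpolated, else capped at highest concentration. GI50: concentration for 50% inhibition of growth.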 The source made the active and inactive calls. No stated cut-off is given here; in the data, active = GI50 up to about 1.1 µM and inactive = higher.

How the values were obtained:
Test in all cases: NCI anticancer screen, dose series, 48 h
SN12C = test system: SN12C
HCT-116 = test system: HCT-116
A549 = test system: A549
NCI/ADR-RES = test system: NCI/ADR-RES
HT-29 = test system: HT-29
OVCAR-4 = test system: OVCAR-4
Malme-3M = test system: Malme-3M
RPMI-8226 = test system: RPMI-8226
SF-268 = test system: SF-268
CCRF-CEM = test system: CCRF-CEM
BT-549 = test system: BT-549
MDA-MB-435 = test system: MDA-MB-435
TK-10 = test system: TK-10
PC-3 = test system: PC-3
SK-MEL-2 = test system: SK-MEL-2
SW-620 = test system: SW-620
SR = test system: SR
SF-295 = test system: SF-295
NCI-H226 = test system: NCI-H226
EKVX = test system: EKVX

CC(=O)N1C2=CCCC2(C)c2ccccc21 (stereo not given)
GI50 (SN12C): 70.5 µM (inactive) | GI50 (HCT-116): 37.1 µM (inactive) | GI50 (A549): 37.7 µM (inactive) | GI50 (NCI/ADR-RES): 57.5 µM (inactive) | GI50 (HT-29): 63.5 µM (inactive) | GI50 (OVCAR-4): 77.6 µM (inactive) | GI50 (Malme-3M): 67.5 µM (inactive) | GI50 (RPMI-8226): 10.7 µM (inactive) | GI50 (SF-268): > 100 µM (inactive) | GI50 (CCRF-CEM): > 100 µM (inactive) | GI50 (BT-549): > 100 µM (inactive) | GI50 (MDA-MB-435): > 100 µM (inactive) | GI50 (TK-10): > 100 µM (inactive) | GI50 (PC-3): 52.4 µM (inactive) | GI50 (SK-MEL-2): > 100 µM (inactive) | GI50 (SW-620): > 100 µM (inactive) | GI50 (SR): > 100 µM (inactive) | GI50 (SF-295): > 100 µM (inactive) | GI50 (NCI-H226): > 100 µM (inactive) | GI50 (EKVX): > 100 µM (inactive)

N#Cc1c(-c2ccccc2)c2c([nH]c1=O)-c1cc([N+](=O)[O-])ccc1CCC2
GI50 (SN12C): 44.1 µM (inactive) | GI50 (HCT-116): 30.3 µM (inactive) | GI50 (A549): 30.3 µM (inactive) | GI50 (NCI/ADR-RES): 22 µM (inactive) | GI50 (HT-29): 34.8 µM (inactive) | GI50 (OVCAR-4): 34 µM (inactive) | GI50 (Malme-3M): 51.8 µM (inactive) | GI50 (RPMI-8226): 32.9 µM (inactive) | GI50 (SF-268): 26.6 µM (inactive) | GI50 (CCRF-CEM): 37.6 µM (inactive) | GI50 (BT-549): 17.4 µM (inactive) | GI50 (MDA-MB-435): 32.3 µM (inactive) | GI50 (TK-10): 44.4 µM (inactive) | GI50 (PC-3): 39.7 µM (inactive) | GI50 (SK-MEL-2): 25.2 µM (inactive) | GI50 (SW-620): 36.7 µM (inactive) | GI50 (SR): 28.8 µM (inactive) | GI50 (SF-295): 18.9 µM (inactive) | GI50 (NCI-H226): 27.1 µM (inactive) | GI50 (EKVX): 26.7 µM (inactive)

CCCN1C(=O)CCC2=C1CCc1c2ccc(Cl)c1Cl
GI50 (SN12C): 28.2 µM (inactive) | GI50 (HCT-116): 27.7 µM (inactive) | GI50 (A549): 27.2 µM (inactive) | GI50 (NCI/ADR-RES): 33.8 µM (inactive) | GI50 (HT-29): 34.8 µM (inactive) | GI50 (OVCAR-4): 26.2 µM (inactive) | GI50 (Malme-3M): 61.1 µM (inactive) | GI50 (RPMI-8226): 28.8 µM (inactive) | GI50 (SF-268): 27 µM (inactive) | GI50 (CCRF-CEM): 39.9 µM (inactive) | GI50 (BT-549): 64.4 µM (inactive) | GI50 (MDA-MB-435): 57.9 µM (inactive) | GI50 (TK-10): 11.9 µM (inactive) | GI50 (PC-3): 27.3 µM (inactive) | GI50 (SK-MEL-2): 13.5 µM (inactive) | GI50 (SW-620): 48.4 µM (inactive) | GI50 (SR): 31.8 µM (inactive) | GI50 (SF-295): 27 µM (inactive) | GI50 (NCI-H226): 60.5 µM (inactive) | GI50 (EKVX): 0.0305 µM (active)

COc1nc(N=P(c2ccccc2)(c2ccccc2)c2ccccc2)cc(=O)[nH]1
GI50 (SN12C): > 100 µM (inactive) | GI50 (HCT-116): > 100 µM (inactive) | GI50 (A549): > 100 µM (inactive) | GI50 (NCI/ADR-RES): > 100 µM (inactive) | GI50 (HT-29): > 100 µM (inactive) | GI50 (OVCAR-4): > 100 µM (inactive) | GI50 (Malme-3M): > 100 µM (inactive) | GI50 (RPMI-8226): > 100 µM (inactive) | GI50 (SF-268): > 100 µM (inactive) | GI50 (CCRF-CEM): > 100 µM (inactive) | GI50 (BT-549): > 100 µM (inactive) | GI50 (MDA-MB-435): > 100 µM (inactive) | GI50 (TK-10): > 100 µM (inactive) | GI50 (PC-3): > 100 µM (inactive) | GI50 (SK-MEL-2): > 100 µM (inactive) | GI50 (SW-620): > 100 µM (inactive) | GI50 (SR): > 100 µM (inactive) | GI50 (SF-295): > 100 µM (inactive) | GI50 (NCI-H226): > 100 µM (inactive) | GI50 (EKVX): > 100 µM (inactive)

C[C@]1(CO)[C@H]2CC[C@@]34C=C[C@@](CO)(CC[C@H]3[C@]2(C)CC[C@H]1O)C4
GI50 (SN12C): > 100 µM (inactive) | GI50 (HCT-116): 56.9 µM (inactive) | GI50 (A549): > 100 µM (inactive) | GI50 (NCI/ADR-RES): 27.3 µM (inactive) | GI50 (HT-29): > 100 µM (inactive) | GI50 (OVCAR-4): 13.3 µM (inactive) | GI50 (Malme-3M): 20.5 µM (inactive) | GI50 (RPMI-8226): 27 µM (inactive) | GI50 (SF-268): 47.3 µM (inactive) | GI50 (CCRF-CEM): > 100 µM (inactive) | GI50 (BT-549): 56.2 µM (inactive) | GI50 (MDA-MB-435): 77.6 µM (inactive) | GI50 (TK-10): > 100 µM (inactive) | GI50 (PC-3): 44.3 µM (inactive) | GI50 (SK-MEL-2): > 100 µM (inactive) | GI50 (SW-620): > 100 µM (inactive) | GI50 (SR): 24.3 µM (inactive) | GI50 (SF-295): 57.9 µM (inactive) | GI50 (NCI-H226): > 100 µM (inactive) | GI50 (EKVX): 29.4 µM (inactive)

C=CCOn1c(C=C)nc2ccc(C)cc21
GI50 (SN12C): 16.3 µM (inactive) | GI50 (HCT-116): 12.1 µM (inactive) | GI50 (A549): 22.7 µM (inactive) | GI50 (NCI/ADR-RES): 25.9 µM (inactive) | GI50 (HT-29): 14.1 µM (inactive) | GI50 (OVCAR-4): 29.3 µM (inactive) | GI50 (Malme-3M): 18 µM (inactive) | GI50 (RPMI-8226): 2.95 µM (inactive) | GI50 (SF-268): 24 µM (inactive) | GI50 (CCRF-CEM): 2.44 µM (inactive) | GI50 (BT-549): 19.7 µM (inactive) | GI50 (MDA-MB-435): 13.6 µM (inactive) | GI50 (TK-10): 13.6 µM (inactive) | GI50 (PC-3): 12.9 µM (inactive) | GI50 (SK-MEL-2): 15.5 µM (inactive) | GI50 (SW-620): 15.4 µM (inactive) | GI50 (SR): 7.59 µM (inactive) | GI50 (SF-295): 25.6 µM (inactive) | GI50 (NCI-H226): 20.2 µM (inactive) | GI50 (EKVX): 19.4 µM (inactive)

BC(=O)NC(CC(C)C)C(=O)NC1c2ccsc2C(=O)C1O.CN(C)C (stereo not given)
GI50 (SN12C): > 100 µM (inactive) | GI50 (HCT-116): > 100 µM (inactive) | GI50 (A549): > 100 µM (inactive) | GI50 (NCI/ADR-RES): > 100 µM (inactive) | GI50 (HT-29): > 100 µM (inactive) | GI50 (OVCAR-4): > 100 µM (inactive) | GI50 (Malme-3M): > 100 µM (inactive) | GI50 (RPMI-8226): > 100 µM (inactive) | GI50 (SF-268): > 100 µM (inactive) | GI50 (CCRF-CEM): > 100 µM (inactive) | GI50 (BT-549): > 100 µM (inactive) | GI50 (MDA-MB-435): > 100 µM (inactive) | GI50 (TK-10): > 100 µM (inactive) | GI50 (PC-3): > 100 µM (inactive) | GI50 (SK-MEL-2): > 100 µM (inactive) | GI50 (SW-620): > 100 µM (inactive) | GI50 (SR): > 100 µM (inactive) | GI50 (SF-295): > 100 µM (inactive) | GI50 (NCI-H226): > 100 µM (inactive) | GI50 (EKVX): > 100 µM (inactive)
